Results: PubChem BioAssay AID330 (DTP/NCI, 2004)
“And” between values parts separate entries of the source, which are not always exact repeats. Equal values may be shown once. Inconclusive results and toxic doses are left out. Rule for the calls: active = survival T/C of 150% or more; inactive = T/C below 125% in these data.

System: P388 leukemia ip, CD2F1 mice, survival T/C
Assay: NCI In Vivo Anticancer Drug Screen. Data for tumor model P388 Leukemia (intraperitoneal) in CD2F1 (CDF1) mice
Details: endpoint: median survival time, higher = longer survival
Outline: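 Mice carrying the transplanted tumor received test compound or vehicle. Survival was recorded in each group, and the value is the treated-group measurement divided by that of the vehicle-treated control group.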

[1] = dose: 60.0 mg/kg/injection, schedule: Q01DX005 (ip), vehicle: saline with Tween-80
[2] = dose: 120.0 mg/kg/injection, schedule: Q01DX005 (ip), vehicle: saline with Tween-80
[3] = dose: 240.0 mg/kg/injection, schedule: Q01DX005 (ip), vehicle: saline with Tween-80
[4] = dose: 50.0 mg/kg/injection, schedule: Q01DX005 (ip), vehicle: Klucel (hydroxypropylcellulose) (HPC)
[5] = dose: 100.0 mg/kg/injection, schedule: Q01DX005 (ip), vehicle: Klucel (hydroxypropylcellulose) (HPC)
[6] = dose: 200.0 mg/kg/injection, schedule: Q01DX005 (ip), vehicle: Klucel (hydroxypropylcellulose) (HPC)
[7] = dose: 50.0 mg/kg/injection, schedule: Q01DX005 (ip), vehicle: saline with Tween-80
[8] = dose: 100.0 mg/kg/injection, schedule: Q01DX005 (ip), vehicle: saline with Tween-80
[9] = dose: 200.0 mg/kg/injection, schedule: Q01DX005 (ip), vehicle: saline with Tween-80
[10] = dose: 50.0 mg/kg/injection, schedule: Q01DX009 (ip), vehicle: saline with Tween-80
[11] = dose: 100.0 mg/kg/injection, schedule: Q01DX009 (ip), vehicle: saline with Tween-80
[12] = dose: 200.0 mg/kg/injection, schedule: Q01DX009 (ip), vehicle: saline with Tween-80

Measured: T/C

Cc1noc(-c2ccccc2)c1N=Nc1ccccc1
inactive: dose: 100.0 mg/kg/injection, schedule: Q01DX001 (ip), vehicle: Klucel (hydroxypropylcellulose) (HPC) 99 % of control | dose: 200.0 mg/kg/injection, schedule: Q01DX001 (ip), vehicle: Klucel (hydroxypropylcellulose) (HPC) 105 % of control | dose: 400.0 mg/kg/injection, schedule: Q01DX001 (ip), vehicle: Klucel (hydroxypropylcellulose) (HPC) 93 % of control

COC(=O)[C@@H]1CCC(/C(C#N)=C2/CC[C@@H](C(=O)OC)N2)=N1
inactive: [1] 96 % of control | [2] 95 % of control | [3] 94 % of control

COc1ccc2cc(N3CCCC3)ccc2c1
inactive: dose: 25.0 mg/kg/injection, schedule: Q04DX003 (ip), vehicle: saline 105 % of control | dose: 50.0 mg/kg/injection, schedule: Q04DX003 (ip), vehicle: saline 96 % of control | dose: 100.0 mg/kg/injection, schedule: Q04DX003 (ip), vehicle: saline 100 % of control and 104 % of control | dose: 400.0 mg/kg/injection, schedule: Q04DX003 (ip), vehicle: saline 107 % of control

CC(/C=C/c1ccccc1)=N\O
inactive: [4] 97 % of control | [5] 99 % of control | [6] 97 % of control

C=C1CCC(=O)NC1=O
inactive: dose: 6.25 mg/kg/injection, schedule: Q01DX005 (ip), vehicle: saline 105 % of control | dose: 12.5 mg/kg/injection, schedule: Q01DX005 (ip), vehicle: saline 102 % of control | dose: 25.0 mg/kg/injection, schedule: Q01DX005 (ip), vehicle: saline 99 % of control | [7] 116 % of control

CC(C)(C)OC(=O)NC(CCCN=C(N)N)C(=O)O (configuration not stated)
inactive: dose: 50.0 mg/kg/injection, schedule: Q01DX005 (ip), vehicle: saline 100 % of control | dose: 100.0 mg/kg/injection, schedule: Q01DX005 (ip), vehicle: saline 94 % of control | dose: 200.0 mg/kg/injection, schedule: Q01DX005 (ip), vehicle: saline 100 % of control

CS[P+]1(C)C=C(N2CCOCC2)CC1 (configuration not stated)
inactive: dose: 50.0 mg/kg/injection, schedule: Q01DX009 (ip), vehicle: saline 101 % of control | dose: 100.0 mg/kg/injection, schedule: Q01DX009 (ip), vehicle: saline 96 % of control | dose: 200.0 mg/kg/injection, schedule: Q01DX009 (ip), vehicle: saline 96 % of control

N#Cc1nc2c(nc1C#N)-c1ccccc1/C2=C1/C(=O)Cc2ccccc21
inactive: [1] 98 % of control | [2] 99 % of control | [3] 102 % of control

CC(=O)N1C=Cc2ccccc2C1C1NC=Cc2ccccc21 (configuration not stated)
inactive: [7] 96 % of control | [8] 94 % of control | [9] 88 % of control

CC(C)(C)N=C(CCN1CCCCC1)Nc1cccc(Cl)c1
inactive: [10] 110 % of control | [11] 106 % of control | [12] 98 % of control

CC(=O)c1c(C(=O)O)n([O-])c2ccccc2[n+]1=O
inactive: [7] 97 % of control | [8] 94 % of control | [9] 112 % of control

Clc1ccc(COC(Cn2ccnc2)c2ccc(Cl)cc2Cl)c(Cl)c1 (configuration not stated)
inactive: dose: 9.37 mg/kg/injection, schedule: Q01DX009 (ip), vehicle: saline with Tween-80 107 % of control | dose: 18.75 mg/kg/injection, schedule: Q01DX005 (ip), vehicle: saline with Tween-80 99 % of control | dose: 37.5 mg/kg/injection, schedule: Q01DX005 (ip), vehicle: saline with Tween-80 106 % of control | dose: 37.5 mg/kg/injection, schedule: Q01DX009 (ip), vehicle: saline with Tween-80 104 % of control | dose: 75.0 mg/kg/injection, schedule: Q01DX005 (ip), vehicle: saline with Tween-80 108 % of control | dose: 75.0 mg/kg/injection, schedule: Q01DX009 (ip), vehicle: saline with Tween-80 112 % of control | dose: 150.0 mg/kg/injection, schedule: Q01DX005 (ip), vehicle: saline with Tween-80 110 % of control | dose: 150.0 mg/kg/injection, schedule: Q01DX009 (ip), vehicle: saline with Tween-80 107 % of control

CCCS(=O)[O-].CCCS(=O)[O-].[Zn+2]
inactive: dose: 0.05 mg/kg/injection, schedule: Q01DX009 (ip), vehicle: saline 103 % of control | dose: 0.1 mg/kg/injection, schedule: Q01DX009 (ip), vehicle: saline 107 % of control | dose: 0.2 mg/kg/injection, schedule: Q01DX009 (ip), vehicle: saline 108 % of control | dose: 0.4 mg/kg/injection, schedule: Q01DX009 (ip), vehicle: saline 99 % of control | dose: 0.8 mg/kg/injection, schedule: Q01DX009 (ip), vehicle: saline 107 % of control | dose: 1.6 mg/kg/injection, schedule: Q01DX009 (ip), vehicle: saline 108 % of control | dose: 3.2 mg/kg/injection, schedule: Q01DX009 (ip), vehicle: saline 101 % of control | dose: 6.4 mg/kg/injection, schedule: Q01DX009 (ip), vehicle: saline 100 % of control | dose: 12.8 mg/kg/injection, schedule: Q01DX009 (ip), vehicle: saline 100 % of control

O=C(NS(=O)(=O)c1ccc(Cl)cc1)c1ccccc1
inactive: dose: 12.5 mg/kg/injection, schedule: Q01DX009 (ip), vehicle: saline with Tween-80 102 % of control and 91 % of control | dose: 25.0 mg/kg/injection, schedule: Q01DX009 (ip), vehicle: saline with Tween-80 106 % of control | [10] 100 % of control and 94 % of control

BrC1(Br)C2CC3C(CC21)C3(Br)Br (configuration not stated)
inactive: dose: 37.5 mg/kg/injection, schedule: Q01DX001 (ip), vehicle: saline with Tween-80 100 % of control | dose: 75.0 mg/kg/injection, schedule: Q01DX001 (ip), vehicle: saline with Tween-80 109 % of control | dose: 150.0 mg/kg/injection, schedule: Q01DX001 (ip), vehicle: saline with Tween-80 100 % of control

COC1C/C(=N\OC(C)=O)C2OC(c3ccccc3)OCC2O1 (configuration not stated)
inactive: [10] 93 % of control | [11] 96 % of control | [12] 95 % of control

O=S(=O)(O)c1ccccc1P(c1ccccc1)c1ccccc1
inactive: [4] 98 % of control | [5] 94 % of control | [6] 88 % of control

COc1ccc2c(=O)c(-c3ccc(OC)c(OC)c3OC)coc2c1
inactive: dose: 100.0 mg/kg/injection, schedule: Q04DX003 (ip), vehicle: Klucel (hydroxypropylcellulose) (HPC) 99 % of control | dose: 200.0 mg/kg/injection, schedule: Q04DX003 (ip), vehicle: Klucel (hydroxypropylcellulose) (HPC) 100 % of control | dose: 400.0 mg/kg/injection, schedule: Q04DX003 (ip), vehicle: Klucel (hydroxypropylcellulose) (HPC) 99 % of control

CC(C)=CCCC(C)(OC1OC(CO)C(O)C(O)C1O)C1CCC2(C)C1C(O)CC1C3(C)CCC(O)C(C)(C)C3C(OC3OC(CO)C(O)C(O)C3OC3OC(C)C(O)C(O)C3O)CC12C (configuration not stated)
inactive: dose: 2.0 mg/kg/injection, schedule: Q01DX009 (ip), vehicle: Klucel (hydroxypropylcellulose) (HPC) 88 % of control | dose: 4.0 mg/kg/injection, schedule: Q01DX009 (ip), vehicle: Klucel (hydroxypropylcellulose) (HPC) 92 % of control | dose: 8.0 mg/kg/injection, schedule: Q01DX009 (ip), vehicle: Klucel (hydroxypropylcellulose) (HPC) 92 % of control | dose: 16.0 mg/kg/injection, schedule: Q01DX009 (ip), vehicle: Klucel (hydroxypropylcellulose) (HPC) 95 % of control | dose: 25.0 mg/kg/injection, schedule: Q01DX009 (ip), vehicle: Klucel (hydroxypropylcellulose) (HPC) 98 % of control | dose: 32.0 mg/kg/injection, schedule: Q01DX009 (ip), vehicle: Klucel (hydroxypropylcellulose) (HPC) 88 % of control | dose: 50.0 mg/kg/injection, schedule: Q01DX009 (ip), vehicle: Klucel (hydroxypropylcellulose) (HPC) 100 % of control | dose: 100.0 mg/kg/injection, schedule: Q01DX009 (ip), vehicle: Klucel (hydroxypropylcellulose) (HPC) 100 % of control | dose: 200.0 mg/kg/injection, schedule: Q01DX009 (ip), vehicle: Klucel (hydroxypropylcellulose) (HPC) 98 % of control

C[P+]1(CCc2ccc(Cl)cc2)CC=CC1
inactive: dose: 25.0 mg/kg/injection, schedule: Q04DX002 (ip), vehicle: saline 101 % of control | dose: 50.0 mg/kg/injection, schedule: Q04DX002 (ip), vehicle: saline 101 % of control

CN1CC(=O)NC2(CCCC2)C1=O
inactive: dose: 37.5 mg/kg/injection, schedule: Q04DX002 (ip), vehicle: Klucel (hydroxypropylcellulose) (HPC) 102 % of control | dose: 75.0 mg/kg/injection, schedule: Q04DX002 (ip), vehicle: Klucel (hydroxypropylcellulose) (HPC) 101 % of control | dose: 150.0 mg/kg/injection, schedule: Q04DX002 (ip), vehicle: Klucel (hydroxypropylcellulose) (HPC) 99 % of control | dose: 300.0 mg/kg/injection, schedule: Q04DX002 (ip), vehicle: Klucel (hydroxypropylcellulose) (HPC) 105 % of control
